Entries after “also recorded” stand apart in the source; their conditions may differ.
What was measured:
[1] = test system: spontaneous mammary carcinomas; assay: Bioscan imaging of 125I-NM404 in Apc Min/+ endogenous mammary adenocarcinoma model; assay type: in vivo, mouse
Description: Apc^Min/+ Mouse Model: This model is comprised of mice carrying the Min allele of Apc (Apc^Min/+ mice) and the type of lesions that appear in these mice are molecularly and histologically similar to breast cancer in humans. This model offers specific advantages over xenograft models in that female Apc^Min/+ mice are predisposed to developing mammary hyperplasias and carcinomas and intestinal adenomas. On the C57BL6/J genetic background, about 5% of untreated females will develop a mammary tumor by 100 days of age (Moser A R, et al. Proc. Natl. Acad. Sci. USA 90:8977-81, 1993). The incidence and multiplicity of the mammary lesions can be increased by a single dose of ethylnitrosourea (ENU), a direct acting alkylating agent. Treatment with ENU results in 90% of B6 Apc^Min/+ females developing an average of 3 mammary squamous cell carcinomas (SCC), but few hyperplasic lesions within 60 days after treatment.
Genetic background can affect the incidence, latency, and type of mammary lesions that develop. For example, FVBxB6 Apc^Min/+ female mice develop an average of 0.2 mammary tumors per mouse, but 4 hyperplasias per mouse within 120 days of treatment. BALB/xB6 Apc^Min/+ develop an average of 1.8 mammary tumors and 0.6 hyperplasias per mouse (Moser A R, et al. Cancer Research 61:3480-3485, 2001). FVBxB6 and BALBxB6 Apc^Min/+ mice develop both mammary SCC and adenocarcinomas (AC).
Imaging Studies: NM404 (100 μg) was radioiodinated with ^125I via isotope exchange in a melt of privalic acid. Following HPLC purification it was dissolved in an aqueous 2% tween-20 solution prior to tail vein injection (15 μCi/20 g mouse) into 6 female Apc^Min/+ mice. Mice were anesthetized and scanned for up to 30 days post injection on a modified Bioscan AR2000 radio-TLC scanner (1 mm increments at 2 mm acquisition/lane and 1 mm high-resolution collimator) and also in an ImTek microCT scanner (390 steps) for anatomic comparison. […] At sacrifice, mammary glands or excised tumors were imaged ex vivo, lesions were excised, weighed, and radioactivity quantitated. Lesion samples were submitted for histological classification. If necessary a long-acting CT blood pool contrast agent (BP20), as described in Weichert J P, et al. Radiology 216:865-871, 2000 and suitable for long microCT acquisitions times, was injected intravenously prior to CT scanning in order to assist in blood vessel visualization (FIG. 3).

C6 gliomas [2] = assay: Bioscan imaging of excised brains of C6 glioma-bearing and sham-operated rats; assay type: in vivo, rat
Protocol: (§1) Glioma tumor model: All animals were housed and handled in accordance with the University of Wisconsin Research Animal Resources Center guidelines. Rat C6 glioma cells were propagated in DMEM medium (Life Technologies, Gaithersburg, Md.) supplemented with 10% heat-inactivated FBS (BioWhittaker, Walkersville, MD), 100 U/ml penicillin-G, 100 μg/ml streptomycin, and 0.01 M hepes (Life Technologies, Gaithersburg, Md.). Intracranial tumor implantation was performed as described in Badie B, et al. J. Neuroimmunol. 133:39-45, 2002. Briefly, 1×10^6 C6 cells were resuspended in 5 μl of 1.2% methylcellulose and injected into the frontal lobes of anesthetized female Wistar rats (Harlan, Indianapolis, Ind.). Sham-operated animals received intracranial injections of an equal volume of methylcellulose without tumor cells.
Imaging studies: Ten days after implantation rats were screened for the presence of intracranial tumors with MRI as described in Badie B, et al. Clin. Cancer Res. 9:872-877, 2003. […]
NM404 (100 μg) was radioiodinated with ^125I via isotope exchange in a melt of pivalic acid (Weichert J P, et al. Int J Appl Rad Isotopes 37:907-913,1986). […] Co-registered Bioscan images and digital photographs were fused (Corel Photo-Paint) in order to accurately determine the location of radioactivity. […]

C6 gliomas [3] = assay: Biodistribution (tissue distribution) of 125I-NM404 in glioma-bearing rats; assay type: in vivo, rat; settings: for Tumor/brain ratio: based on % injected dose/g; for tissue distribution, Thyroid: indicator of in vivo deiodination
Protocol: as §1
Biodistribution studies: Rats bearing C6 gliomas (n=4, 10 day old tumors), and sham-operated rats (n=3) were injected with ^125I-NM404 (15 μCi/200 g rat) and biodistribution studies performed as described in Rampy M A, et al. J. Med. Chem. 38:3156-3162, 1995. Accordingly, animals were euthanized by exsanguination at 24, 48, and 96 hours following injection. A total of 17 tissues including blood, plasma, adrenal glands, bladder wall, bone marrow, brain, eye lens, fat, heart, kidney, liver, lung, muscle, spleen, skin, thyroid, and tumor were excised, rinsed, and dissected free of extraneous tissue. Tissues were minced and duplicate samples weighed and placed in plastic tubes for isotope counting in a gamma counter (Perkin Elmer/Wallac Wizard-1470). Injection site and residual carcass radioactivity were determined in a well counter (Capintec CRC-15R). Time normalized tissue distribution tables were generated by a custom computer program which produces decay-corrected tissue radioactivity concentration data on a percent injected dose/g, […], and percent injected dose/organ±SEM basis.

[4] = test system: pancreatic adenocarcinomas; assay: Bioscan imaging of 125I-NM404 in c-myc spontaneous pancreatic adenocarcinoma model; assay type: in vivo, mouse; settings: c-myc transgenic mice, adenocarcinomas 5-12 mm in diameter
Description: Mouse Pancreatic Adenocarcinoma Models: Two murine strains that are transgenic for either c-myc or k-ras, well-known oncogenes, have been developed at the University of Wisconsin (Sandgren E P, et al. Proc. Natl. Acad. Sci. USA 88:93-97, 1991 and Grippo P J, et al. Cancer Research 63:2016-2019, 2003). Expression of c-myc is targeted to pancreatic acinar cells because it is linked to an elastase promoter, which is only expressed in the pancreas. These ela-1-myc transgenic mice develop acinar and ductal neoplasia, which results in death between 2 and 7 months of age. By one month of age, the pancreas appears thickened and firm. Thus mice between the ages of 1-3 months serve as excellent models for the study of pancreatic cancer. Most human pancreatic neoplasms have a ductal morphology, and Dr. Sandgren's transgene targeting strategies are aimed at developing tumors that are specific for pancreatic ductal epithelium.
Imaging Studies: In order to determine if NM404 localizes in mouse pancreatic tumors, six c-myc transgenic mice were scanned on a Bioscan AR-2000 radioTLC scanner (modified by inventors for mouse imaging) from 2-21 days after tail vein injection of ^[…] (15 μCi/20 g body weight). […] At sacrifice, tissues were excised, weighed, and radioactivity quantitated in a gamma counter.

viable tumor cells = assay: Autoradiography experiments in other tumor models; assay type: in vivo; settings: versus normal or necrotic tissues
[5] = test system: CNS-1 brain tumor xenografts; assay: MicroPET evaluation of 124I-NM404 in rat CNS-1 brain tumor model; assay type: in vivo; settings: CNS-1 rats
Protocol: NM404 was radiolabeled with ^124I in excellent radiochemical yield (>60% isolated yield, >99% purity) via isotope exchange reaction of stable NM404 with sodium-iodide (Eastern Isotopes, Sterling Va.). Following preparative HPLC purification ^124I-NM404 was solubilized in 2% Tween-20 and filtered (0.22 micron). NM404 (130-200 μCi in 0.1 ml) was injected (i.v., tail vein) into 6 rats with CNS-1 brain tumor xenografts. MicroPET images (Concorde Microsystems-P4, 30 min acquisition) were acquired immediately after and at 6 h, 24 h, and 96 h post injection. Contrast-enhanced MRI images were obtained immediately following the final PET scan and PET/MRI images were manually fused using Amira (V3.1, TGS, Inc). Rats were euthanized and brain tissue subjected to histopathologic analysis.

[6] = Apc Min/+ mice, Bioscan imaging

SMILES: C[N+](C)(C)CCOP(=O)([O-])OCCCCCCCCCCCCCCCCCCc1ccc(I)cc1 [NM404, 18-(p-iodophenyl)-octadecylphosphocholine]
- HPLC analysis of radioactive urine and feces ([1]; Apc Min/+ mice after i.v. 125I-NM404): presence of metabolites and no parent NM404
- localization in focal alveolar (mammary) hyperplasias [1, 6]: no corresponding focal activity; also recorded: did not localize
- localization in intestinal adenomatous polyps [1, 6]: no uptake; also recorded: did not localize
- uptake in spontaneous mammary carcinomas ([1]; Apc Min/+ mice, i.v. 125I-NM404 15 μCi/20 g, carcinomas 2-15 mm in diameter): > 20 % dose/g
- tumor retention ([1]; Apc Min/+ mice, mammary carcinomas, 21 days = predetermined study endpoint): > 21 days
- tracer uptake in C6 gliomas on Bioscan images (C6 gliomas [2]; C6 glioma-bearing rats, 24-96 h after i.v. 125I-NM404 15 μCi/200 g): intense localization; also recorded: concentrated intensely
- radioactivity in normal brain tissue (C6 gliomas [2]; sham operated control rats): minimal
- Tumor/brain ratio (C6 gliomas [3]; 24 h): 10.6
- tissue distribution, Thyroid (C6 gliomas [3]; 48 h, N = 1): 2.3 % injected dose/g tissue
- Tumor/brain ratio (C6 gliomas [3]; 48 h): 12.0
- tissue distribution, Thyroid (C6 gliomas [3]; 96 h, N = 2, ± SEM): 9.0 % injected dose/g tissue
- Tumor/brain ratio (C6 gliomas [3]; 96 h): 7.8
- retention in pancreatic adenocarcinomas [4]: > 21 days
- uptake in pancreatic adenocarcinomas ([4]; i.v. 15 μCi/20 g): striking uptake
- cells/tissues capable of accumulating NM404 (autoradiography) (viable tumor cells): only viable tumor cells

SMILES: C[N+](C)(C)CCOP(=O)([O-])OCCCCCCCCCCCCCCCCCCc1ccc([124I])cc1 [^124 I-NM404]
- tumor uptake (microPET) ([5]; 6 hours following injection): respectable tumor uptake
- concomitant normal brain tissue activity (microPET) ([5]; any time point): Little to no
- tumor conspicuity (microPET) ([5]; at either 24 or 96 hours): significant
- tumor uptake (microPET) ([5]; within 30 minutes of i.v. injection): no tumor uptake

SMILES: C[N+](C)(C)CCOP(=O)([O-])OCCCCCCCCCCCCCCCCCCc1ccc([125I])cc1 [^125I-NM404]
- tissue distribution, Blood (C6 gliomas [3]; 24 h, N = 1): 1.83 % injected dose/g tissue
- tissue distribution, Brain (C6 gliomas [3]; 24 h, N = 1): 0.07 % injected dose/g tissue
- tissue distribution, Glioma (C6 gliomas [3]; 24 h, N = 1): 0.74 % injected dose/g tissue
- tissue distribution, Kidney (C6 gliomas [3]; 24 h, N = 1): 0.91 % injected dose/g tissue
- tissue distribution, Liver (C6 gliomas [3]; 24 h, N = 1): 0.77 % injected dose/g tissue
- tissue distribution, Spleen (C6 gliomas [3]; 24 h, N = 1): 0.80 % injected dose/g tissue
- Tumor/brain ratio (C6 gliomas [3]; 24 h): 10.6
- tissue distribution, Blood (C6 gliomas [3]; 48 h, N = 1): 1.16 % injected dose/g tissue
- tissue distribution, Brain (C6 gliomas [3]; 48 h, N = 1): 0.05 % injected dose/g tissue
- tissue distribution, Glioma (C6 gliomas [3]; 48 h, N = 1): 0.60 % injected dose/g tissue
- tissue distribution, Kidney (C6 gliomas [3]; 48 h, N = 1): 0.44 % injected dose/g tissue
- tissue distribution, Liver (C6 gliomas [3]; 48 h, N = 1): 0.30 % injected dose/g tissue
- tissue distribution, Spleen (C6 gliomas [3]; 48 h, N = 1): 0.33 % injected dose/g tissue
- tissue distribution, Thyroid (C6 gliomas [3]; 48 h, N = 1): 2.34 % injected dose/g tissue
- Tumor/brain ratio (C6 gliomas [3]; 48 h): 12.0
- tissue distribution, Blood (C6 gliomas [3]; 96 h, N = 2, ± SEM): 0.82 ± 0.01 % injected dose/g tissue
- tissue distribution, Brain (C6 gliomas [3]; 96 h, N = 2, ± SEM): 0.09 ± 0.02 % injected dose/g tissue
- tissue distribution, Glioma (C6 gliomas [3]; 96 h, N = 2, ± SEM): 0.70 ± 0.04 % injected dose/g tissue
- tissue distribution, Kidney (C6 gliomas [3]; 96 h, N = 2, ± SEM): 0.45 ± 0.05 % injected dose/g tissue
- tissue distribution, Liver (C6 gliomas [3]; 96 h, N = 2, ± SEM): 0.39 ± 0.01 % injected dose/g tissue
- tissue distribution, Spleen (C6 gliomas [3]; 96 h, N = 2, ± SEM): 0.33 ± 0.03 % injected dose/g tissue
- tissue distribution, Thyroid (C6 gliomas [3]; 96 h, N = 2, ± SEM): 9.06 ± 3.84 % injected dose/g tissue
- Tumor/brain ratio (C6 gliomas [3]; 96 h): 7.8

Source: patent publication US20060115426A1, “Methods of detecting breast cancer, brain cancer, and pancreatic cancer” (priority 2004, published 2006)
